According to patent publication US20200078468A1, “NEUROTENSIN RECEPTOR BINDING CONJUGATES AND FORMULATIONS THEREOF” (priority 2016, published 2020):
Square brackets hold non-standard residues; d marks the D form. Peptide text beside a SMILES is read from it. * marks the point of attachment. X2 = COc1cc2cc(c1Cl)N(C)C(=O)C[C@H](OC(=O)[C@H](C)N(C)C(=O)CCS*)[C@]1(C)O[C@H]1[C@H](C)[C@@H]1C[C@@](O)(NC(=O)O1)[C@H](OC)/C=C/C=C(\C)C2; Pen = CC(C)(S)[C@H](N)C(=O)O; Tle = CC(C)(C)[C@H](N)C(=O)O

Columns and labels:
human NTSR1 = target: T1, human NTSR1 (Homo sapiens, UniProt P30989); experiment: radioligand-receptor binding assay, [125I] labeled neurotensin (Eurofins Panlabs); conditions: [125I] neurotensin 0.02 nM, membranes from NTSR1 expressing HEK-293 cells, 45 minute incubation, Cheng and Prusoff; read-out: NTSR1 binding Ki
T1 construct: host or cells: HEK-293 cells (membrane preparations)
Experimental: Conjugates were assessed in an in vitro assay evaluating binding to NTSR1. A radioligand-receptor binding assay was conducted at Eurofins Panlabs (Taiwan) to determine the affinity of conjugates described herein to NTSR1. The assay measures binding of radiolabeled ligand, [^125I] labeled neurotensin, to human NTSR1 using membrane preparations from NTSR1 expressing HEK-293 cells (Human embryonic kidney cells 293). Membranes were incubated with radiolabeled neurotensin (0.02 nM) in the presence of conjugate/compound starting at a dose of either 100 nM, or 10 nM, using 3× serial dilutions to obtain a 6-pt curve. After a 45 minute incubation, membranes were filtered and washed 3× and counted to determine the remaining [^125I] neurotensin bound to the receptor. IC50 values were determined by a non-linear, least squares regression analysis using MathIQ™ (ID Business Solutions Ltd., UK). The Ki values were calculated using the equation of Cheng and Prusoff (Cheng and Prusoff, Biochem. Pharmacol. 22:3099-3108, 1973) using the observed IC50 of the tested conjugate/compound, the concentration of radioligand employed in the assay, and the historical values for the Kd of the ligand obtained at Eurofins.

[1] = test system: SW48 (human colon cancer cells); experiment: inhibition of SW48 cell proliferation (CellTiter Glo); format: cell-based; conditions: NTSR1 targeted compound; 72 hrs; read-out: SW-48 proliferation IC50
Outline: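 Cells plated at 5,000/well and grown 24 hrs were exposed to conjugates for 72 hrs at 37° C, 5% CO2, in a ten-point three-fold series starting at 10 μM; vehicle was 0.01% DMSO. Proliferation was read by CellTiter Glo. % inhibition was taken relative to vehicle, with IC50 from four-parameter nonlinear regression.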

T1 sequence (P30989 whole entry): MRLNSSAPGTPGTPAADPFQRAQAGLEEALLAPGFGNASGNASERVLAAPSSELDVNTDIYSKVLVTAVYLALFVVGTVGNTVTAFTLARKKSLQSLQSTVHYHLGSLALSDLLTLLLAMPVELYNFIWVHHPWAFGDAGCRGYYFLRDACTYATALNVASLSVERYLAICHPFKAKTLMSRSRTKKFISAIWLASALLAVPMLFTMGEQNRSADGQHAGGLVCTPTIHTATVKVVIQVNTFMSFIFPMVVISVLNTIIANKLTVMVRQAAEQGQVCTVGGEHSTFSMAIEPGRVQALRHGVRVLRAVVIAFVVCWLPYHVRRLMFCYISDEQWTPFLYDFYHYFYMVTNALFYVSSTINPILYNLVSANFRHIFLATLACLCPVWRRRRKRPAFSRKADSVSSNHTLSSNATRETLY

| Compound | Ki (human NTSR1) [nM] | IC50 [1] [nM] |
| --- | --- | --- |
| CO[C@H]1C(=O)[C@]2(C)[C@@H](OC)C[C@H]3OC[C@@]3(OC(C)=O)[C@H]2[C@H](OC(=O)c2ccccc2)[C@]2(O)C[C@H](OC(=O)[C@H](OC(=O)CCCCCN3C(=O)CC(SC(C)(C)[C@H](NC(C)=O)C(=O)N4CCC[C@H]4C(=O)N[C@@H](CCCNC(=N)N)C(=O)N[C@@H](CCCNC(=N)N)C(=O)N4CCC[C@H]4C(=O)N[C@@H](Cc4ccc(O)cc4)C(=O)N[C@H](C(=O)N[C@@H](CC(C)C)C(=O)O)C(C)(C)C)C3=O)[C@@H](NC(=O)OC(C)(C)C)c3ccccc3)C(C)=C1C2(C)C (stereo partly shown) [Compound 4] | 2.06 | 138 |
| COc1cc2cc(c1Cl)N(C)C(=O)C[C@H](OC(=O)[C@H](C)N(C)C(=O)CCSSC(C)(C)[C@H](NC(C)=O)C(=O)N1CCC[C@H]1C(=O)N[C@@H](CCCNC(=N)N)C(=O)N[C@@H](CCCNC(=N)N)C(=O)N1CCC[C@H]1C(=O)N[C@@H](Cc1ccc(O)cc1)C(=O)N[C@H](C(=O)N[C@@H](CC(C)C)C(=O)O)C(C)(C)C)[C@]1(C)O[C@H]1[C@H](C)[C@@H]1C[C@@](O)(NC(=O)O1)[C@H](OC)/C=C/C=C(\C)C2 [Compound 12] (Ac-[Pen](X2)PRRPY[Tle]L-OH) | 1.03 | 15 |
| COc1cc2cc(c1Cl)N(C)C(=O)C[C@H](OC(=O)[C@H](C)N(C)C(=O)CCSC1CC(=O)N(CCCNC(=O)CNC(=O)[C@H](CC(C)C)NC(=O)[C@H](Cc3ccccc3)NC(=O)CNC(=O)CCCCCN3C(=O)CC(SC(C)(C)[C@H](NC(C)=O)C(=O)N4CCC[C@H]4C(=O)N[C@@H](CCCNC(=N)N)C(=O)N[C@@H](CCCNC(=N)N)C(=O)N4CCC[C@H]4C(=O)N[C@@H](Cc4ccc(O)cc4)C(=O)N[C@H](C(=O)N[C@@H](CC(C)C)C(=O)O)C(C)(C)C)C3=O)C1=O)[C@]1(C)O[C@H]1[C@H](C)[C@@H]1C[C@@](O)(NC(=O)O1)[C@H](OC)/C=C/C=C(\C)C2 (stereo partly shown) [Compound 16] | 1.64 | 15 |
| COc1cc2cc(c1Cl)N(C)C(=O)C[C@H](OC(=O)[C@H](C)N(C)C(=O)CCSC1CC(=O)N(CCCNC(=O)CNC(=O)[C@H](CC(C)C)NC(=O)[C@H](Cc3ccccc3)NC(=O)CNC(=O)CCCCCN3C(=O)CC(SC(C)(C)[C@H](NC(C)=O)C(=O)N4CCC[C@H]4C(=O)N[C@@H](CCCNC(=N)N)C(=O)N(C)[C@@H](CCCNC(=N)N)C(=O)N4CCC[C@H]4C(=O)N[C@@H](Cc4ccc(O)cc4)C(=O)N[C@H](C(=O)N[C@@H](CC(C)C)C(=O)O)C(C)(C)C)C3=O)C1=O)[C@]1(C)O[C@H]1[C@H](C)[C@@H]1C[C@@](O)(NC(=O)O1)[C@H](OC)/C=C/C=C(\C)C2 (stereo partly shown) [Compound 17] | 10.6 | 3.9 |
| COc1cc2cc(c1Cl)N(C)C(=O)C[C@H](OC(=O)[C@H](C)N(C)C(=O)CCSC1CC(=O)N(CCCNC(=O)CNC(=O)[C@H](CC(C)C)NC(=O)[C@H](Cc3ccccc3)NC(=O)CNC(=O)CCCCCN3C(=O)CC(SC(C)(C)[C@H](NC(C)=O)C(=O)N4CCC[C@H]4C(=O)N[C@@H](CCCNC(=N)N)C(=O)N(C)[C@@H](CCCNC(=N)N)C(=O)N4CCC[C@H]4C(=O)N[C@H](Cc4ccc(O)cc4)C(=O)N[C@H](C(=O)N[C@@H](CC(C)C)C(=O)O)C(C)(C)C)C3=O)C1=O)[C@]1(C)O[C@H]1[C@H](C)[C@@H]1C[C@@](O)(NC(=O)O1)[C@H](OC)/C=C/C=C(\C)C2 (stereo partly shown) [Compound 18] | > 100 | 36 |
| COc1cc2cc(c1Cl)N(C)C(=O)C[C@H](OC(=O)[C@H](C)N(C)C(=O)CCSC1CC(=O)N(CCCNC(=O)CNC(=O)[C@H](CC(C)C)NC(=O)[C@H](Cc3ccccc3)NC(=O)CNC(=O)CCCCCN3C(=O)CC(SC(C)(C)[C@H](NC(C)=O)C(=O)N4CCC[C@H]4C(=O)N[C@@H](CCCNC(=N)N)C(=O)N(C)[C@@H](CCCNC(=N)N)C(=O)N4CCC[C@H]4C(=O)N[C@@H](Cc4c[nH]c5ccccc45)C(=O)N[C@H](C(=O)N[C@@H](CC(C)C)C(=O)O)C(C)(C)C)C3=O)C1=O)[C@]1(C)O[C@H]1[C@H](C)[C@@H]1C[C@@](O)(NC(=O)O1)[C@H](OC)/C=C/C=C(\C)C2 (stereo partly shown) [Compound 19] | > 100 | 6.3 |
| COc1cc2cc(c1Cl)N(C)C(=O)C[C@H](OC(=O)[C@H](C)N(C)C(=O)CCSC1CC(=O)N(CCCNC(=O)CNC(=O)[C@H](CC(C)C)NC(=O)[C@H](Cc3ccccc3)NC(=O)CNC(=O)CCCCCN3C(=O)CC(SC(C)(C)[C@H](NC(C)=O)C(=O)N4CCC[C@H]4C(=O)N(C)[C@@H](CCCNC(=N)N)C(=O)N[C@@H](CCCNC(=N)N)C(=O)N4CCC[C@H]4C(=O)N[C@@H](Cc4ccc(O)cc4)C(=O)N[C@H](C(=O)N[C@@H](CC(C)C)C(=O)O)C(C)(C)C)C3=O)C1=O)[C@]1(C)O[C@H]1[C@H](C)[C@@H]1C[C@@](O)(NC(=O)O1)[C@H](OC)/C=C/C=C(\C)C2 (stereo partly shown) [Compound 20] | 0.93 | 6.8 |
| COc1cc2cc(c1Cl)N(C)C(=O)C[C@H](OC(=O)[C@H](C)N(C)C(=O)CCSC1CC(=O)N(CCCNC(=O)CNC(=O)[C@H](CC(C)C)NC(=O)[C@H](Cc3ccccc3)NC(=O)CNC(=O)CCCCCN3C(=O)CC(SC(C)(C)[C@H](NC(C)=O)C(=O)N4CCC[C@H]4C(=O)N[C@@H](CCCCN)C(=O)N[C@@H](CCCNC(=N)N)C(=O)N4CCC[C@H]4C(=O)N[C@@H](Cc4ccc(O)cc4)C(=O)N[C@H](C(=O)N[C@@H](CC(C)C)C(=O)O)C(C)(C)C)C3=O)C1=O)[C@]1(C)O[C@H]1[C@H](C)[C@@H]1C[C@@](O)(NC(=O)O1)[C@H](OC)/C=C/C=C(\C)C2 (stereo partly shown) [Compound 21] | 4.65 | 0.49 |
| COc1cc2cc(c1Cl)N(C)C(=O)C[C@H](OC(=O)[C@H](C)N(C)C(=O)CCSC1CC(=O)N(CCCNC(=O)CNC(=O)[C@H](CC(C)C)NC(=O)[C@H](Cc3ccccc3)NC(=O)CNC(=O)CCCCCN3C(=O)CC(SC(C)(C)[C@H](NC(C)=O)C(=O)N4CCC[C@H]4C(=O)N[C@@H](CCCCN)C(=O)N(C)[C@@H](CCCNC(=N)N)C(=O)N4CCC[C@H]4C(=O)N[C@@H](Cc4ccc(O)cc4)C(=O)N[C@H](C(=O)N[C@@H](CC(C)C)C(=O)O)C(C)(C)C)C3=O)C1=O)[C@]1(C)O[C@H]1[C@H](C)[C@@H]1C[C@@](O)(NC(=O)O1)[C@H](OC)/C=C/C=C(\C)C2 (stereo partly shown) [Compound 22] | 12.6 | 0.53 |
| COc1cc2cc(c1Cl)N(C)C(=O)C[C@H](OC(=O)[C@H](C)N(C)C(=O)CCSC1CC(=O)N(CCCNC(=O)CNC(=O)[C@H](CC(C)C)NC(=O)[C@H](Cc3ccccc3)NC(=O)CNC(=O)CCC(=O)NCCCC[C@H](NC(=O)c3ccc(C(C)=O)cc3)C(=O)N3CCC[C@H]3C(=O)N(C)[C@@H](CCCNC(=N)N)C(=O)N[C@@H](CCCNC(=N)N)C(=O)N3CCC[C@H]3C(=O)N[C@@H](Cc3ccc(O)cc3)C(=O)N[C@H](C(=O)N[C@@H](CC(C)C)C(=O)O)C(C)(C)C)C1=O)[C@]1(C)O[C@H]1[C@H](C)[C@@H]1C[C@@](O)(NC(=O)O1)[C@H](OC)/C=C/C=C(\C)C2 (stereo partly shown) [Compound 28] | 0.67 | 5.9 |
| COc1cc2cc(c1Cl)N(C)C(=O)C[C@H](OC(=O)[C@H](C)N(C)C(=O)CCSC1CC(=O)N(CCCNC(=O)CNC(=O)[C@H](CC(C)C)NC(=O)[C@H](Cc3ccccc3)NC(=O)CNC(=O)CCCCCN3C(=O)CC(SCCC(=O)NCCCC[C@H](NC(C)=O)C(=O)N4CCC[C@H]4C(=O)N[C@H](CCCNC(=N)N)C(=O)N[C@@H](CCCNC(=N)N)C(=O)N4CCC[C@H]4C(=O)N[C@@H](Cc4ccc(O)cc4)C(=O)N[C@H](C(=O)N[C@@H](CC(C)C)C(=O)O)C(C)(C)C)C3=O)C1=O)[C@]1(C)O[C@H]1[C@H](C)[C@@H]1C[C@@](O)(NC(=O)O1)[C@H](OC)/C=C/C=C(\C)C2 (stereo partly shown) [Compound 29] | 1.77 | 22 |
